Results from patent US4172941A, “7-[2-[ω-(1,3-Dit hiolan-2-imino)substituted]-acetylamino]cephalosporanic acid derivatives” (Richardson-Merrell Inc., priority 1978, dated 1979).
Converted amounts (≈) assume the structure as drawn.

Tests used:
Diplococcus pneumonae = test: in vitro minimal inhibitory concentration, two-fold serial dilutions in trypticase soy broth; assay type: cell-based; settings: 24 hours at 37° C.
Protocol: (§1) The following example illustrates the in vitro activity of the compounds of this invention.
(§2) Two-fold serial dilutions of the test compounds are made in trypticase soy broth. A series of tubes of broth containing different concentrations of the test compounds are inoculated with the particular bacterial culture used for in vitro activity. The inoculated tubes are examined for the inhibition of bacterial growth after 24 hours of incubation at 37° C. The following table summarizes the minimal inhibitory concentration (MIC) for various bacterial test cultures using the following compounds: […]

Escherichia coli = test: as above; assay type: cell-based; settings: 24 hours at 37° C.
Protocol: as §1, §2

[1] = test system: Salmonella schottmuelleri; test: as above; assay type: cell-based; settings: 24 hours at 37° C.
Protocol: as §1, §2

Staphylococcus aureus = test: as above; assay type: cell-based; settings: 24 hours at 37° C.
Protocol: as §1, §2

Streptococcus pyogenes [2] = test: as above; assay type: cell-based; settings: 24 hours at 37° C.
Protocol: as §1, §2

Streptococcus pyogenes [3] = test: in vivo protection of mice challenged with a fatal bacterial infection; settings: sc, subcutaneous, 1 and 4 hours after challenge, dose per treatment protecting fifty percent
Protocol: (§3) The following example illustrates the in vivo activity of the compounds of this invention.
(§4) Several groups of 10 mice are challenged with a fatal bacterial infection. Various dose levels of the test compound are administered orally or subcutaneously to separate groups of these animals 1 and 4 hours after challenge. After three of four days, depending upon the test organism, the number of survivors are recorded at each dose level and the dose required per treatment to protect fifty percent of the infected mice (ED50) is calculated by the method described by Reed and Muench, Amer. J. Hyg. 27, 493-497 (1938).

Diplococcus pneumoniae = test: as above; settings: Streptococcus pneumoniae, 1 and 4 hours after challenge, dose per treatment protecting fifty percent
Protocol: as §3, §4

Salmonella schotmuelleri = test: as above; settings: sc, subcutaneous, 1 and 4 hours after challenge, dose per treatment protecting fifty percent
Protocol: as §3, §4

## CC(=O)OCC1=C(C(=O)O)N2C(=O)C(NC(=O)CN=C3SCCS3)C2SC1 (stereo not drawn) [Compound A, 7-[2-(1,3-dithiolan-2-imino)acetylamino]cephalosporanic acid]
Diplococcus pneumonae
  MIC: 0.1 µg/mL (≈ 0.232 µM)
Escherichia coli
  MIC: 50 µg/mL (≈ 116 µM)
[1]
  MIC: 12.5 µg/mL (≈ 29 µM)
Staphylococcus aureus
  MIC: 0.4 µg/mL (≈ 0.927 µM)
Streptococcus pyogenes [2]
  MIC: 0.4 µg/mL (≈ 0.927 µM)
Streptococcus pyogenes [3]
  ED50: 15.3 mg/kg

## CC1=C(C(=O)O)N2C(=O)C(NC(=O)C(N=C3SCCS3)c3ccccc3)C2SC1 (stereo not drawn) [Compound B, 7-[2-(1,3-dithiolan-2-imino)-2-phenylacetylamino]desacetoxycephalosporanic acid]
Diplococcus pneumonae
  MIC: 12.5 µg/mL (≈ 27.8 µM)
Escherichia coli
  MIC: > 100 µg/mL
[1]
  MIC: > 100 µg/mL
Staphylococcus aureus
  MIC: 25 µg/mL (≈ 55.6 µM)
Streptococcus pyogenes [2]
  MIC: 6.2 µg/mL (≈ 13.8 µM)
Streptococcus pyogenes [3]
  ED50: 48 mg/kg

## CC1=C(C(=O)O)N2C(=O)C(NC(=O)C(N)c3ccc(N=C4SCCS4)cc3)C2SC1 (stereo not drawn) [Compound C, 7-[2-amino-2-[p-(1,3-dithiolan-2-imino)phenyl]acetylamino]desacetoxycephalosporanic acid]
Diplococcus pneumonae
  MIC: ≤ 0.05 µg/mL
Escherichia coli
  MIC: > 100 µg/mL
[1]
  MIC: > 100 µg/mL
Staphylococcus aureus
  MIC: 3.1 µg/mL (≈ 6.67 µM)
Streptococcus pyogenes [2]
  MIC: ≤ 0.05 µg/mL
Diplococcus pneumoniae; po, per os
  ED50: 4.1 mg/kg
Diplococcus pneumoniae; sc, subcutaneous
  ED50: 5 mg/kg
Salmonella schotmuelleri
  ED50: > 100 mg/kg
Streptococcus pyogenes [3]
  ED50: 0.5 mg/kg

## CC(=O)OCC1=C(C(=O)O)N2C(=O)C(NC(=O)C(O)c3ccc(N=C4SCCS4)cc3)C2SC1 (stereo not drawn) [Compound D, 7-[2-[p-(1,3-dithiolan-2-imino)phenyl]-2-hydroxyacetylamino]cephalosporanic acid]
Diplococcus pneumonae
  MIC: < 0.05 µg/mL
Escherichia coli
  MIC: 200 µg/mL (≈ 382 µM)
[1]
  MIC: 50 µg/mL (≈ 95.5 µM)
Staphylococcus aureus
  MIC: 0.4 µg/mL (≈ 0.764 µM)
Streptococcus pyogenes [2]
  MIC: < 0.05 µg/mL
Streptococcus pyogenes [3]
  ED50: 2.2 mg/kg
